Several values for one entry are separate records, joined by “and”; a condition that tells them apart may be missing. Equal values may be shown once. Read-outs that look alike come from different tables or passages of the source.
What was measured:
hNPC1L1/MDCKII cells [1] = system: hNPC1L1/MDCKII cells; parameters: method as in PMID 25305716; settings: determined previously, cited from earlier work
in vitro = settings: dog
Procedure: (§1) Cytotoxicity of ezetimibe 1 and of newly synthesized amides 5a–f was determined using MTT cell proliferation assay in Madine-Darby Canine Kidney II wild-type (MDCKIIwt), MDCKII cells stably expressing hNPC1L1 (hNPC1L1/MDCKII) and HepG2 cell lines (Table 1). hNPC1L1/MDCKII were used as a pharmacologically validated model for investigating NPC1L1-mediated cholesterol uptake.[21] LC50 values were determined and values higher than 100 μM were considered non-toxic.
(§2) Madin-Darby Canine Kidney II wild type (MDCKIIwt), MDCKII cells stably expressing human NPC1L1 (hNPC1L1/MDCKII), and HepG2 cells were cultured in Dulbecco’s Modified Eagle Medium (DMEM) (Gibco,® Life Technologies, Carlsbad, USA) containing 10% fetal calf serum (FCS) (Sigma–Aldrich, Munich, Germany), 1% penicillin/streptomycin in a humidified 5% CO2 incubator at 37 °C. MDCKIIwt cells were stably transfected with human NPC1L1 using Lipofectamine LTX (Life Technologies, Carlsbad, USA) according to the manufacturer’s protocol. After 48 h, selection with 1000 μg/mL G418 (Sigma–Aldrich, Munich, Germany) was started. Selection lasted for two weeks, after which transfected cells were maintained in the medium containing 500 μg/mL G418.
(§3) MDCKIIwt, hNPC1L1/MDCKII, and HepG2 cells were plated in 96-well microtiter plates at 2 × 10^4 cells/mL on day 0. On the next day, tested compounds were added to obtain five 10-fold consecutive dilutions in range from 10^−8 to 10^−4 mol/L, and incubated for further 72 h. Cytotoxicity of the compounds was determined by the MTT cell proliferation assay (Sigma–Aldrich, Munich, Germany).[22] The results are expressed as LC50 values. The absorbance (A) was measured on a microplate reader at 570 nm. Cytotoxicity of each compound was tested in quadruplicate in three independent experiments. Furthermore, toxicity of the compounds in combination with micelles was tested using the same method. MDCKIIwt and hNPC1L1/MDCKII were plated in 96-well microtiter plates (150 μL medium/well) at 2 × 10^5 cells/mL 24 h before the experiment. Micelles were prepared according to the modified method described by Field et al.[23] In brief, micellar components were mixed with DMEM supplemented with 10% FCS to obtain final concentrations of 0.25 mM oleic acid, 50 μM cholesterol, 10 μM compactin, 50 μM mevalonate, 5 mM Na-taurocholate (Sigma–Aldrich, Munich, Germany) and sonicated. Tested compounds (25, 50, 100, 150, 200 μM) were added to the prepared medium, vortexed and applied to the cells for 1 h. Cytotoxicity was determined using the MTT assay.

C57BL/6 mice = experiment: In vivo acute cholesterol absorption; settings: 20 mg/kg/day for 2 days, oral gavage, reduction in [3H]cholesterol radioactivity relative to vehicle, mean ± SEM
Procedure: Finally, we tested the in vivo inhibition of cholesterol absorption of ezetimibe 1 and 4-F-phenyl representatives (5b,d,f) from each group of ezetimibe analogs. For in vivo testing, we used the compounds with lower IC50 values and higher inhibition of cholesterol uptake as determined in vitro. For that purpose, mice were treated with 20 mg/kg/day of each compound for two days, gavaged with [^3H]cholesterol and radioactivity was measured in the liver and three equal parts of the small intestine (duodenum, jejunum, ileum). The results are expressed as percent reduction in radioactivity relative to vehicle (Table 2). […] In the three parts of the small intestine (duodenum, jejunum, ileum), ezetimibe 1 lowered [^3H]cholesterol by 60%, 52%, and 44%, respectively.
26 weeks old male C57BL/6 mice (3–4 per group) were maintained in a temperature-controlled environment under a 12 h light/12 h dark cycle with free access to chow diet (Altromin Spezialfutter GmbH, Lage, Germany) and water. For two days, mice were treated with ezetimibe, tested compounds (20 mg/kg/day) or vehicle. For the treatment, compounds were dissolved in corn oil and administered to mice (100 μL) after 4 h fasting by oral gavage. On day 2, 90 min after compound administration, mice were gavaged with corn oil (200 μL) containing [^3H]cholesterol (2 μCi) ([1,2-3H(N)] cholesterol, 1 mCi/mL, ARC Inc., St. Louis, USA). Liver and small intestines were collected 4 h post-gavage and cholesterol uptake and absorption were determined as previously described.[24] Animal experiments were performed according to the standards set by the Austrian Federal Ministry of Science, Research, and Economy, Vienna, Austria.

[2] = MTT cell proliferation assay (cytotoxicity), MDCKIIwt; format: cell-based; settings: dog, MDCKII wild-type cells, 72 h incubation, read-out: LC50, MDCKII
Procedure: as §1, §2, §3

[3] = MTT cell proliferation assay (cytotoxicity), HepG2; format: cell-based; settings: human, HepG2 cells, 72 h incubation, read-out: LC50, HepG2
Procedure: The results are expressed as LC50 values. […] Cytotoxicity was determined using the MTT assay.

hNPC1L1/MDCKII cells [4] = experiment: In vitro [3H]cholesterol uptake; format: cell-based, Canine; settings: for IC50: Canis lupus familiaris, MDCK-II, read-out: IC50, inhibition of cholesterol uptake; for maximum inhibition of cholesterol uptake: compared to untreated cells
Procedure: Ezetimibe analogs 5a–f were tested for inhibition of cholesterol uptake in hNPC1L1/MDCKII cells (Fig. 3).
The results are expressed as percentage of inhibition compared to untreated cells and represent mean ± SEM of three independent experiments. *p <0.05, **p <0.01, ***p <0.001 determined by one-way ANOVA followed by Dunnett’s test.
In vitro cholesterol uptake was determined as described by Dražić et al.[19] In brief, hNPC1L1/MDCKII cells were plated in 24-well plates at 5 × 10^5 cells/mL medium (500 μL medium/well) in DMEM supplemented with 5% LPDS 24 h before the treatment. Cells were washed once with PBS and medium containing micelles, [^3H]cholesterol (0.18 μCi/mL medium) ([1,2-3H(N)] cholesterol, 1 mCi/mL, ARC Inc., St. Louis, USA) and tested compounds in concentrations of 0–200 μM was added. After 1 h, the medium was removed, cells were washed three times with ice-cold 0.2% free fatty acid-free BSA and lysed. Radioactivity in the lysate (100 μL) was measured by liquid scintillation counting. Protein content in lysates was determined with the DC Protein Assay (Bio-Rad, Hercules, USA). The results were expressed as percentage of inhibition compared to untreated cells in CPM/mg protein. Activity of each compound was tested in duplicate in three independent experiments.

[5] = MDCKII cells stably expressing human NPC1L1 (hNPC1L1/MDCKII)
[6] = listed as ezetimibe 1, 20 mg/kg/day
[7] = hNPC1L1/MDCKII cells, 1 h, micelles with [3H]cholesterol

In the case of `O=C1[C@H](CC[C@H](O)c2ccc(F)cc2)[C@@H](c2ccc(O)cc2)N1c1ccc(F)cc1` [Compound 1, Ezetimibe, reference compound], the IC50 (hNPC1L1/MDCKII cells [1]; read-out: IC50, inhibition of cholesterol uptake) is given as 24 µM, the “maximum inhibition of cholesterol uptake” value (hNPC1L1/MDCKII cells [1]) is given as 40% and the CC50 at 72 h (in vitro; [5]) is given as 62.3 µM. For the same compound, the “In vivo inhibition of cholesterol absorption, Duodenum” value (shortened to “In vivo inhibition … Duodenum”) (C57BL/6 mice; 20 mg/kg/day) was 60 ± 6 %, the “In vivo inhibition of cholesterol absorption, Ileum” value (“In vivo inhibition … Ileum” for short) (C57BL/6 mice; 20 mg/kg/day) was 44 ± 11% and the “In vivo inhibition of cholesterol absorption, Jejunum” value (“In vivo inhibition … Jejunum” for short) (C57BL/6 mice; 20 mg/kg/day) was 52 ± 3 %. For the same compound, the “In vivo inhibition of cholesterol absorption, Liver” value (shortened to “In vivo inhibition … Liver”) (C57BL/6 mice; 20 mg/kg/day) was 53 ± 2 %, the “In vivo inhibition … Duodenum” value (C57BL/6 mice; [6]) was 60% and the “In vivo inhibition … Ileum” value (C57BL/6 mice; [6]) was 44%. For the same compound, the “In vivo inhibition … Jejunum” value (C57BL/6 mice; [6]) was 52%, the “In vivo inhibition … Liver” value (C57BL/6 mice; [6]) was 53% and the CC50 at 72 h [2] was > 100 µM. For the same compound, the CC50 at 72 h [3] was 69.7 µM.

`O=C(/C=C/c1ccccc1)N[C@H]1C(=O)N(c2ccc(F)cc2)[C@@H]1c1ccc(O)cc1` [Compound 5a, (E)-N-((2R,3R)-1-(4-Fluorophenyl)-2-(4-hydroxyphenyl)-4-oxoazetidin-3-yl)cinnamamide] showed a CC50 at 72 h (in vitro; [5]) of 65.1 µM, a CC50 at 72 h [2] of 66.5 µM and an IC50 (hNPC1L1/MDCKII cells [4]; [7]) of 20 µM. The “concentration at which maximum inhibition of cholesterol uptake was reached” value (hNPC1L1/MDCKII cells [4]; hNPC1L1/MDCKII cells) was 60 µM, the “maximum inhibition of cholesterol uptake” value (hNPC1L1/MDCKII cells [4]; hNPC1L1/MDCKII cells) was ~ 45% and the CC50 at 72 h [3] was 63.3 µM.

For `O=C(/C=C/c1ccc(F)cc1)N[C@H]1C(=O)N(c2ccc(F)cc2)[C@@H]1c1ccc(O)cc1` [Compound 5b, (E)-3-(4-Fluorophenyl)-N-((2R,3R)-1-(4-fluorophenyl)-2-(4-hydroxyphenyl)-4-oxoazetidin-3-yl)acrylamide], the CC50 at 72 h (in vitro) was 63.3 µM, the “In vivo inhibition … Duodenum” value (C57BL/6 mice; 20 mg/kg/day) was 27% and 27 ± 10% and the “In vivo inhibition … Ileum” value (C57BL/6 mice; 20 mg/kg/day) was 37% and 37 ± 15%. For the same compound, the “In vivo inhibition … Jejunum” value (C57BL/6 mice; 20 mg/kg/day) was 35% and 35 ± 8%, the “In vivo inhibition … Liver” value (C57BL/6 mice; 20 mg/kg/day) was 49% and 49 ± 5 % and the CC50 at 72 h [2] was 64 µM. For the same compound, the IC50 (hNPC1L1/MDCKII cells [4]) was 18 µM, the “concentration at which maximum inhibition of cholesterol uptake was reached” value (hNPC1L1/MDCKII cells [4]; hNPC1L1/MDCKII cells) was 60 µM and the “maximum inhibition of cholesterol uptake” value (hNPC1L1/MDCKII cells [4]; hNPC1L1/MDCKII cells) was ~ 45%. The CC50 at 72 h [3] was 57.5 µM.

For `O=C(Cc1ccccc1)N[C@H]1C(=O)N(c2ccc(F)cc2)[C@@H]1c1ccc(O)cc1` [Compound 5c, N-((2R,3R)-1-(4-Fluorophenyl)-2-(4-hydroxyphenyl)-4-oxoazetidin-3-yl)-2-phenylacetamide], the CC50 at 72 h (in vitro; [5]) was > 100 µM, the CC50 at 72 h [2] was > 100 µM and the IC50 (hNPC1L1/MDCKII cells [4]; [7]) was 88 µM. The “maximum inhibition of cholesterol uptake” value (hNPC1L1/MDCKII cells [4]; hNPC1L1/MDCKII cells) was ~ 40% and the CC50 at 72 h [3] was > 100 µM.

In the case of `O=C(Cc1ccc(F)cc1)N[C@H]1C(=O)N(c2ccc(F)cc2)[C@@H]1c1ccc(O)cc1` [Compound 5d, 2-(4-Fluorophenyl)-N-((2R,3R)-1-(4-fluorophenyl)-2-(4-hydroxyphenyl)-4-oxoazetidin-3-yl)acetamide], the CC50 at 72 h (in vitro; [5]) is reported as > 100 µM, the “In vivo inhibition … Duodenum” value (C57BL/6 mice; 20 mg/kg/day) is reported as 15% and 15 ± 12% and the “In vivo inhibition … Ileum” value (C57BL/6 mice; 20 mg/kg/day) is reported as 24% and 24 ± 13%. The “In vivo inhibition … Jejunum” value (C57BL/6 mice; 20 mg/kg/day) was 14% and 14 ± 20%, the “In vivo inhibition … Liver” value (C57BL/6 mice; 20 mg/kg/day) was 39% and 39 ± 11 % and the CC50 at 72 h [2] was > 100 µM. For the same compound, the IC50 (hNPC1L1/MDCKII cells [4]; [7]) was 46 µM, the “maximum inhibition of cholesterol uptake” value (hNPC1L1/MDCKII cells [4]; hNPC1L1/MDCKII cells) was ~ 40% and the CC50 at 72 h [3] was > 100 µM.

With `O=C(N[C@H]1C(=O)N(c2ccc(F)cc2)[C@@H]1c1ccc(O)cc1)c1ccccc1` [Compound 5e, N-((2R,3R)-1-(4-Fluorophenyl)-2-(4-hydroxyphenyl)-4-oxoazetidin-3-yl)benzamide] the CC50 at 72 h (in vitro; [5]) was 68.3 µM, the CC50 at 72 h [2] was 91.2 µM and the IC50 (hNPC1L1/MDCKII cells [4]; [7]) was 70 µM. The CC50 at 72 h [3] was 67.6 µM.

For `O=C(N[C@H]1C(=O)N(c2ccc(F)cc2)[C@@H]1c1ccc(O)cc1)c1ccc(F)cc1` [Compound 5f, 4-Fluoro-N-((2R,3R)-1-(4-fluorophenyl)-2-(4-hydroxyphenyl)-4-oxoazetidin-3-yl)benzamide], the CC50 at 72 h (in vitro; [5]) was 64.7 µM, the “In vivo inhibition … Duodenum” value (C57BL/6 mice; 20 mg/kg/day) was 42% and 42 ± 2% and the “In vivo inhibition … Ileum” value (C57BL/6 mice; 20 mg/kg/day) was 28% and 28 ± 7%. For the same compound, the “In vivo inhibition … Jejunum” value (C57BL/6 mice; 20 mg/kg/day) was 32% and 32 ± 6%, the “In vivo inhibition … Liver” value (C57BL/6 mice; 20 mg/kg/day) was 37% and 37 ± 8 % and the CC50 at 72 h [2] was 78.6 µM. For the same compound, the IC50 (hNPC1L1/MDCKII cells [4]; [7]) was 54 µM and the CC50 at 72 h [3] was 71.9 µM.

Reference: PMC4414353, “Synthesis and evaluation of novel amide amino-β-lactam derivatives as cholesterol absorption inhibitors” (Bioorganic & medicinal chemistry, 2015)
